Data taken from patent US8383582B2, “Inhibitor against forming biofilm comprising κ-casein macropeptide” (Industry Foundation of Chonnam National University, priority 2010, dated 2013).

Legend:
Assay type in all cases: cell-based, Listeria monocytogenes
L. monocytogenes = assay: Biofilm formation on PVC microplates under static condition (crystal violet, A595); conditions: for inhibitory rate of biofilm formation (group): 24 h incubation
Description: The quantification of biofilm production on plastic microtiter plates and glass tubes was based on a previously described method (Djordjevic et al., 2002). As abiotic surfaces for biofilm formation, 96-well polyvinyl chloride (PVC) microplates (BD Biosciences, San Jose, Calif., USA) and Pyrex glass tube (10 mm by 20 mm) were used. Overnight cultures of 12 strains of L. monocytogenes were twice washed with PBS and inoculated at 10^6 CFU/ml in modified Welshimer's broth (MWB) supplemented different concentrations of CMP (Davisco Foods International, Inc., MN, USA; 0.1, 0.2, and 0.4 mg/ml or 1.0, 2.0, and 4.0 mg/ml). After incubation at 30° C. without agitation for 24 and 48 h, the microplates were twice rinsed thoroughly with double-distilled water, and a 0.1% (w/v) solution of crystal violet (CV) was added to stain the attached cells. Following staining at room temperature for 30 min, CV was removed and the wells were rinsed with double-distilled water thrice. After the microplates were air dried, the dye was solubilized with 95% ethanol solution. The absorbance at 595 nm of the solubilized dye was subsequently determined by using an enzyme-linked immunosorbent assay (ELISA) plate reader (Molecular Devices, Sunnyvale, Calif., USA). An equal volume of 95% ethanol was added in the control wells.
All experiments were conducted at least in triplicate. The effects of each treatment were analyzed by analysis of variance (ANOVA) followed by Duncan's test with the SAS software package (version 9.1; SAS, Inc., Cary, N.C., USA). The level of significance was defined at p<0.05.

[1] = test system: L. monocytogenes 3990 and 18; assay: Flow chamber biofilm assay (glass capillary tubes, continuous flow); conditions: 0.4 mg/ml CMP
Protocol: Under continuous flow conditions, biofilms were grown in glass capillary tubes by using a slight modification of the previously described method (Purevdorj et al., 2002). The flow chambers, with individual channel dimensions of 3 mm×3 mm×50 mm (Stovall Life Sciences, Inc., Greensboro, N.C., USA), were inoculated with 1 ml (˜10^9 CFU/ml) of the overnight cultures of L. monocytogenes grown in TSBYE. The inoculum was injected to fill the inside of the glass tubes by using a syringe. The tubing upstream of the glass tube was clamped, and the system allowed standing without flow for 30 min at room temperature. After inoculation, the capillary tubes were mounted on a standard microscope slide. The system was switched to continuous culture mode by delivering MWB to the home-made carboy with a flow rate of 0.1 ml/min at 30° C. […] The biofilms developed in the flow chambers were monitored by using transmitted light and 10× objective lenses with an Olympus CH2 microscope (Olympus, Tokyo, Japan).

[2] = test system: virulence-associated genes of L. monocytogenes; assay: Semi-quantitative RT-PCR of virulence-associated genes; conditions: 0.4 mg/ml CMP; L. monocytogenes Scott A infected HT-29 cells
Protocol: The regulation of virulence-associated genes was investigated by using semi-quantitative RT-PCR techniques. Total RNA was isolated from the each treated samples using a RNeasy™ Total RNA Kit (Qiagen) with manufacturer's manuals. One μg total RNA was reverse transcribed in 20 μl reaction mixtures with SuperScript™ III First-Strand cDNA Synthesis Kit (Invitrogen, Carlsbad, Calif.). Then, cDNA were then amplified by using Taq DNA polymerase (TaKaRa, Japan). For the iap, denaturation for 5 min at 94° C. was followed by 40 cycles composed of 30 s denaturation at 94° C., 45 s annealing at 60° C. (TABLE 4), and 1 min elongation at 72° C. Except for the iap, denaturation for 5 min at 94° C. was followed by 35 cycles composed of 1 min denaturation at 94° C., 2 min annealing at 60° C. (TABLE 4), and 1 min elongation at 72° C. The last cycle was followed by 10 min final elongation at 72° C. Oligonucleotide (Bioneer, Daejun, Korea) sequences used for the amplification of each gene fragments including expression of proteins (HT-29) are shown in TABLE 4 (Haller et al., 2000). The RT-PCR products were electrophoresed in a 1.5% agarose gel and visualized by ethidium bromide (EtBr) staining. The intensity of each band was determined by densitometric analysis of gels using Kodak DC290 zoom digital camera and Kodak 1D image analysis software (Eastman Kodak Company, Rochester, N.Y., USA).

κ-casein macropeptide [CMP]
inhibitory effects on biofilm formation at low concentrations (L. monocytogenes; 0.1, 0.2, or 0.4 mg/ml tested, effect at 0.4 mg/ml): profound inhibitory effects
differences in biofilm inhibition among the tested concentrations (L. monocytogenes; 1, 2, or 4 mg/ml of CMP): no significant differences
decrease of L. monocytogenes biofilms compared to the control (L. monocytogenes; PVC microplates, 1, 2, or 4 mg/ml of CMP): < 90%
inhibitory rate of biofilm formation (group) (L. monocytogenes; strain 17, PVC microplates): high inhibition (90%≦inhibition rate represent high inhibition)
inhibitory rate of biofilm formation (group) (L. monocytogenes; strain 18, PVC microplates): high inhibition (90%≦inhibition rate represent high inhibition)
inhibitory rate of biofilm formation (group) (L. monocytogenes; strain 70, PVC microplates): low inhibition (inhibition rate<87% represent low inhibition)
inhibitory rate of biofilm formation (group) (L. monocytogenes; strain 106, PVC microplates): medium inhibition (87%≦inhibition rate<90% represent medium inhibition)
inhibitory rate of biofilm formation (group) (L. monocytogenes; strain 303, PVC microplates): low inhibition (inhibition rate<87% represent low inhibition)
inhibitory rate of biofilm formation (group) (L. monocytogenes; strain 3982, PVC microplates): high inhibition (90%≦inhibition rate represent high inhibition)
inhibitory rate of biofilm formation (group) (L. monocytogenes; strain 3990, PVC microplates): high inhibition (90%≦inhibition rate represent high inhibition)
inhibitory rate of biofilm formation (group) (L. monocytogenes; strain Brie-1, PVC microplates): high inhibition (90%≦inhibition rate represent high inhibition)
inhibitory rate of biofilm formation (group) (L. monocytogenes; strain LCDC, PVC microplates): low inhibition (inhibition rate<87% represent low inhibition)
inhibitory rate of biofilm formation (group) (L. monocytogenes; strain Scott A, PVC microplates): low inhibition (inhibition rate<87% represent low inhibition)
inhibitory rate of biofilm formation (group) (L. monocytogenes; strain V7, PVC microplates): medium inhibition (87%≦inhibition rate<90% represent medium inhibition)
inhibitory rate of biofilm formation (group) (L. monocytogenes; strain V37, PVC microplates): medium inhibition (87%≦inhibition rate<90% represent medium inhibition)
microcolonies or aggregates seen ([1]; same incubation times as control (12-18 h)): very few microcolonies or aggregates
biofilm biomass compared to control ([1]; strains 3990 and 18, 24 h, glass capillary tubes, continuous flow): decreased biomass
mRNA level of hlyA [2]: significantly repressed
mRNA level of iap [2]: significantly repressed
mRNA level of inlA [2]: significantly repressed
mRNA level of plcB [2]: significantly repressed
